Data published in patent US20050250801A1, “Method of treating cancer with azaspirane compositions” (priority 2003, published 2005).
Read-outs that look alike come from different tables or passages of the source.

How the values were obtained:
Assay in all cases: NCI in vitro SRB assay, Non-Small Cell Lung Cancer
Type in all cases: cell-based
NCI-H460 = conditions: for CC50 / GI50: Homo sapiens
Protocol: (§1) An in vitro assay which tested the ability of N,N,-diethyl-8,8-dipropyl-2-azaspiro[4,5]decane-2-propanamine dimaleate (Compound 1) to inhibit the growth of known cancer cell lines was performed by the National Cancer Institute in accordance with standard procedures. See: Lin, Z. X., Hoult, J. R., and Raman, A. Sulphorhodamine B assay for measuring proliferation of a pigmented melanocyte cell line and its application to the evaluation of crude drugs used in the treatment of vitiligo. J Ethnopharmacol. 66: 141-150, 1999. Briefly, selected tumor cell lines were cultured in media containing five different concentrations of Compound 1. After 48 hours of continuous exposure, a sulforhodamine B (SRB) assay was used to estimate cell viability or growth via optical measurements.
(§2) From the measurements, the following values were determined: 1) the concentration of Compound 1 at which a tumor cell growth inhibition of 50% (relative to control) occurs (GI50), 2) the concentration of Compound 1 at which no growth occurs (total growth inhibition, TGI), and 3) the concentration of Compound 1 at which the […] (LC 50). […] FIG. 6 illustrates, graphically, tumor cell growth as a function of Compound 1 concentration of the scanned tumor cell lines.

NCI-H522 = conditions: for CC50 / GI50: Homo sapiens
Protocol: as §1, §2

NCI-H23 = conditions: for CC50 / GI50: Homo sapiens
Protocol: as §1, §2

HOP-62 = system: HOP-62
Protocol: as §1, §2

[1] = NCI-H460, Log10 conc -4.0 Moles/L
[2] = NCI-H460, Log10 conc -5.0 Moles/L
[3] = NCI-H460, Log10 conc -6.0 Moles/L
[4] = NCI-H460, Log10 conc -7.0 Moles/L
[5] = NCI-H460, Log10 conc -8.0 Moles/L
[6] = NCI-H522, Log10 conc -4.0 Moles/L
[7] = NCI-H522, Log10 conc -5.0 Moles/L
[8] = NCI-H522, Log10 conc -6.0 Moles/L
[9] = NCI-H522, Log10 conc -7.0 Moles/L
[10] = NCI-H522, Log10 conc -8.0 Moles/L
[11] = NCI-H23, Log10 conc -4.0 Moles/L
[12] = NCI-H23, Log10 conc -5.0 Moles/L
[13] = NCI-H23, Log10 conc -6.0 Moles/L
[14] = NCI-H23, Log10 conc -7.0 Moles/L
[15] = NCI-H23, Log10 conc -8.0 Moles/L
[16] = HOP-62, Log10 conc -4.0 Moles/L
[17] = HOP-62, Log10 conc -5.0 Moles/L
[18] = HOP-62, Log10 conc -6.0 Moles/L
[19] = HOP-62, Log10 conc -7.0 Moles/L
[20] = HOP-62, Log10 conc -8.0 Moles/L

CCCC1(CCC)CCC2(CCN(CCCN(CC)CC)C2)CC1.O=C(O)/C=C\C(=O)O.O=C(O)/C=C\C(=O)O [Compound 1, N,N,-diethyl-8,8-dipropyl-2-azaspiro[4,5]decane-2-propanamine dimaleate]
CC50 (NCI-H460; NCI-H460, read-out: LC50): 5.08 µM
CC50 (NCI-H460; NCI-H460, read-out: Log10 LC50 (converted)): 5.13 µM
GI50 (NCI-H460; NCI-H460, read-out: GI50): 1.31 µM
GI50 (NCI-H460; NCI-H460, read-out: Log10 GI50 (converted)): 1.32 µM
Log10 TGI (NCI-H460; NCI-H460): −5.59
TGI (NCI-H460; NCI-H460): 2.58 µM
Mean Optical Densities (NCI-H460; [1]): 0.015
Percent Growth (NCI-H460; [1]): −90%
Mean Optical Densities (NCI-H460; [2]): −0.001
Percent Growth (NCI-H460; [2]): −100%
Mean Optical Densities (NCI-H460; [3]): 1.075
Percent Growth (NCI-H460; [3]): 70%
Mean Optical Densities (NCI-H460; [4]): 1.278
Percent Growth (NCI-H460; [4]): 85%
Mean Optical Densities (NCI-H460; [5]): 1.403
Percent Growth (NCI-H460; [5]): 95%
CC50 (NCI-H522; NCI-H522, read-out: LC50): > 100 µM
CC50 (NCI-H522; NCI-H522, read-out: Log10 LC50 (converted)): > 100 µM
GI50 (NCI-H522; NCI-H522, read-out: GI50): 1.18 µM
GI50 (NCI-H522; NCI-H522, read-out: Log10 GI50 (converted)): 1.17 µM
Log10 TGI (NCI-H522; NCI-H522): −5.22
TGI (NCI-H522; NCI-H522): 6.05 µM
Mean Optical Densities (NCI-H522; [6]): 0.099
Percent Growth (NCI-H522; [6]): −7%
Mean Optical Densities (NCI-H522; [7]): 0.091
Percent Growth (NCI-H522; [7]): −15%
Mean Optical Densities (NCI-H522; [8]): 0.347
Percent Growth (NCI-H522; [8]): 55%
Mean Optical Densities (NCI-H522; [9]): 0.531
Percent Growth (NCI-H522; [9]): 97%
Mean Optical Densities (NCI-H522; [10]): 0.518
Percent Growth (NCI-H522; [10]): 94%
CC50 (NCI-H23; NCI-H23, read-out: LC50): 6.32 µM
CC50 (NCI-H23; NCI-H23, read-out: Log10 LC50 (converted)): 6.31 µM
GI50 (NCI-H23; NCI-H23, read-out: GI50): 1.96 µM
GI50 (NCI-H23; NCI-H23, read-out: Log10 GI50 (converted)): 1.95 µM
Log10 TGI (NCI-H23; NCI-H23): −5.45
TGI (NCI-H23; NCI-H23): 3.52 µM
Mean Optical Densities (NCI-H23; [11]): 0.030
Percent Growth (NCI-H23; [11]): −92%
Mean Optical Densities (NCI-H23; [12]): 0.040
Percent Growth (NCI-H23; [12]): −89%
Mean Optical Densities (NCI-H23; [13]): 0.822
Percent Growth (NCI-H23; [13]): 107%
Mean Optical Densities (NCI-H23; [14]): 0.814
Percent Growth (NCI-H23; [14]): 105%
Mean Optical Densities (NCI-H23; [15]): 0.728
Percent Growth (NCI-H23; [15]): 85%
Log10 TGI (HOP-62; HOP-62): −5.54
TGI (HOP-62; HOP-62): 2.91 µM
Mean Optical Densities (HOP-62; [16]): 0.090
Percent Growth (HOP-62; [16]): −79%
Mean Optical Densities (HOP-62; [17]): 0.056
Percent Growth (HOP-62; [17]): −87%
Mean Optical Densities (HOP-62; [18]): 0.693
Percent Growth (HOP-62; [18]): 75%
Mean Optical Densities (HOP-62; [19]): 0.757
Percent Growth (HOP-62; [19]): 93%
Mean Optical Densities (HOP-62; [20]): 0.711
Percent Growth (HOP-62; [20]): 80%
CC50 (HOP-62; Homo sapiens, HOP-62, read-out: LC50): 5.93 µM
CC50 (HOP-62; Homo sapiens, HOP-62, read-out: Log10 LC50 (converted)): 5.89 µM
GI50 (HOP-62; Homo sapiens, HOP-62, read-out: GI50): 1.43 µM
